Data on 16 sequences can be found in article PMC10951066, “The self-reactive FVIII T cell repertoire in healthy individuals relies on a short set of epitopes and public clonotypes” (Frontiers in Immunology, 2024).

Test [1] relates to CD4 T cells from healthy donors. The test is described as follows: Large-scale CD4 T cell epitope mapping by IFN-γ ELISPOT (16 donors). Format: cell-based, human. To be noted: for nb positive T cell lines: across all 16 donors; for cumulative donor coverage (%): cumulative over peptides ranked by donor coverage; for Donor coverage ( %): of 16 donors; for responding donors: of 16 healthy donors, individual peptide 10 µg/ml; for response intensity ( %): percentage of 872 FVIII-specific T cell lines. From the text: PBMCs were purified from the whole blood of anonymous healthy donors, who gave informed consent (Etablissement Français du Sang, Rungis, France), using Ficoll-Paque®. Monocyte-derived dendritic cells (DCs) were produced from cells isolated using Percoll gradient by 5 days of culture in AIM-V medium (Invitrogen, Villebon-sur-Yvette, France) supplemented with 1,000 U/ml recombinant human (rh) IL-4 and rhGM-CSF (both from R&D Systems, Lille, France). Mature DCs were produced by two supplementary days of culture in the presence of LPS (1 µg/ml) and R848 (10µg/ml). CD4 T cells were isolated from autologous PBMCs by positive selection using magnetic labeling with anti-CD4 mAbs conjugated to magnetic microbeads followed by magnetic cell sorting, as recommended by the manufacturer (Miltenyi Biotec, Bergisch Gladbach, Germany). Immature DCs were loaded overnight at 37 °C with either 0.2 µM of rFVIII, 0.2 µM of ovalbumin, or 0.25 µM of KLH in 96-well U-bottom plates, while mature DCs were used for FVIII peptides (10 ug/ml). CD4 T cell lines were generated in vitro in IMDM (Invitrogen) supplemented with 10% human serum, 0.24 mM glutamine, 0.55 mM asparagine, 1.5 mM arginine (all amino acids from Sigma-Aldrich), 50 U/mL penicillin/50 μg/mL of streptomycin (Invitrogen), 20 IU/mL human IL-2, and 17 IU/ml human IL-7 (premium-grade; Miltenyi Biotec) by three once-per-week rounds of stimulation of CD4 T cells (200,000 per well) with autologous DCs (20,000 per well). 10,000 lymphocytes were collected at day 19 from each T cell line (expanded T cells contained in one well) and their specificity was assessed by using IFN-g ELISPOT.
The T cell lines and APCs were plated at equal number for both stimulated and unstimulated control conditions. […] The spot number was determined by using the ELISPOT Reader System (Autoimmun Diagnostika, Ebinger, Germany). HLA restriction was assessed using monoclonal antibodies (10 μg/ml) specific to HLA-DP (B7/21), HLA-DQ (SPVL3), or HLA-DR (L243).
Based on the T cell epitope prediction software NetMHCpan4.0 ([23]), we selected 63 20-mer peptides that are predicted for their ability to bind promiscuously, with a percentile score below 10%, at least four HLA class II molecules from a selection of 15 preponderant HLA-DR alleles in our panel (as shown in ST1). […] A total of 16 healthy donors with unrelated HLA typing (ST2) were used as sources of T cells to identify FVIII-specific CD4 T cell epitopes. Specific T cell lines were generated by in vitro T cell culture using FVIII and KLH. The peptide specificity of the T cell lines raised against FVIII was assessed by two independent IFN-γ ELISPOT using peptide pools and individual peptides. […] Furthermore, four independent healthy donors were used as sources of T cells to characterize the HLA restriction and to assess the reactivity of T cell lines generated with the 18 peptides toward rFVIII. T cell lines were amplified in vitro for 28 days through stimulation with the pool of 18 peptides and then tested through IFN-γ ELISPOT.

The next test addresses HLA-DRB1*0301 (Homo sapiens, UniProt P01903+P01911, A100K/A102G/A103R/A169T/F55Y/I96L/K41T/L162R/M171V/P40S/Q125H/Q178H/Q39Y/R42S/S66N/T106N/T262R/W38E/Y61H). The test is described as follows: Peptide-MHCII competition binding assay. The following applies: competition ELISA, pH 5.9, peptide 90.000nM – 0.9nM, HLA-DRB1 30 nM, biotinylated peptide 15nM, duplicate wells; ratios below 10 = good binding; reference peptide SFLLTDLINRRTPRVDGQ
The procedure: Quantitative peptide-MHCII competition binding assays were carried out to determine binding avidities of the 18 20-mer FVIII peptides to 6 HLA-DRB1. Data are presented as ratio between reference peptide IC50/FVIII-peptide IC50 tested. Briefly, non-biotinylated FVIII peptides have been diluted at a concentration of 20 mM in DMSO. 10-µl aliquots of serially diluted (90.000nM – 0.9nM in n-Octyl b-D-Glucopyranoside, 2.5 mg/ml in 1x phosphate buffer, pH 5.9) of non-biotinylated FVIII peptides, were added to duplicate wells of 96-well polypropylene plates. Serially diluted non-FVIII reference peptides known to bind to the specific HLA-DRB1 were added to separate wells as positive controls. Next, the biotinylated peptide at a concentration of 2mM was use to prepare 1000-fold pre-dilution to reach a final concentration of 15nM. The HLA-DRB1 proteins were diluted to 30 nM in n-Octyl β-D-Glucopyranoside, 2.5 mg/ml in 1x phosphate buffer, pH 5.9. […] SA-HRP (diluted 5000x in 1xPBS 0.1% Tween20) was added to each well. The plates were covered and incubated at room temperature for 60 min […] and washed. TMB (100 μl/well) was then added, and the plates were incubated at room temperature for 15-30 min. ELISA stopping solution (0.5M H2SO4) was added and then read on a FLUOstar OPTIMA fluorometer. Sigmoidal binding curves were simulated and IC50 values calculated for the FVIII peptides, based on their competition with the reference peptides for each HLA-DRB1. Data were reported as the ratio between the values of the tested peptide and of the reference peptide. Ratios below 10 correspond to good biding affinity.
On the technique in general: In an ELISA, binding on a coated surface is turned into a signal by an enzyme label.

Consider “ATRRYYLGAVELSWDYMQSD [P20-39, 20-mer FVIII peptide, A1 domain]”, for which, in test [1], the “nb positive T cell lines” value is on record as 43, the “cumulative donor coverage (%)” value worked out at 81%, the “Donor coverage ( %)” value was determined as 62% and the responding donors is reported as 10. Further, in test [1], the “response intensity ( %)” value is 4,93%. For the same sequence, on HLA-DRB1*0301, the “Ratio IC50 DRB1*0301” value was found to be 850.
For the sequence “DHLFNIAKPRPPWMGLLGPT [P75-94, 20-mer FVIII peptide, A1 domain]”, in test [1], the “nb positive T cell lines” value is listed as 38, the “cumulative donor coverage (%)” value is 81%, the “Donor coverage ( %)” value was determined as 69% and the responding donors was found to be 11. In addition, the “response intensity ( %)” value in test [1] was 4,36%. Further, the “Ratio IC50 DRB1*0301” value at HLA-DRB1*0301 is recorded as 40.
For “HPQSWVHQIALRMEVLGCEA [P2328-2347, 20-mer FVIII peptide, C2 domain]”, in test [1], the “nb positive T cell lines” value was 23, the “Donor coverage ( %)” value is listed as 56%, the responding donors was 9 and the “response intensity ( %)” value is given as 2,64%. Also, the “Ratio IC50 DRB1*0301” value on HLA-DRB1*0301 was found to be 0.0.
Regarding “INGYIMDTLPGLVMAQDQRI [P1940-1959, 20-mer FVIII peptide, A3 domain]”, in test [1], the “nb positive T cell lines” value turned out to be 14, the “cumulative donor coverage (%)” value was 94%, the “Donor coverage ( %)” value is given as 56% and the responding donors is recorded as 9. Further, the “response intensity ( %)” value in test [1] is reported as 1,61%.
On to “KARLHLQGRSNAWRPQVNNP [P2226-2245, 20-mer FVIII peptide, C2 domain]”, for which, in test [1], the “nb positive T cell lines” value was 12, the “Donor coverage ( %)” value was 56%, the responding donors stood at 9 and the “response intensity ( %)” value is given as 1,38%. Moreover, on HLA-DRB1*0301, the “Ratio IC50 DRB1*0301” value is reported as 33.
Consider “KEPFSWIKVDLLAPMIIHGI [P2084-2103, 20-mer FVIII peptide, C1 domain]”, for which, in test [1], the “nb positive T cell lines” value is 20, the “cumulative donor coverage (%)” value amounted to 94%, the “Donor coverage ( %)” value stood at 56% and the responding donors is given as 9. Besides, the “response intensity ( %)” value in test [1] is 2,29%. Further, the “Ratio IC50 DRB1*0301” value at HLA-DRB1*0301 is listed as 6.6.
With “KKEEYKMALYNLYPGVFETV [P1986-2005, 20-mer FVIII peptide, A3 domain]”, in test [1], the “nb positive T cell lines” value amounted to 18, the “Donor coverage ( %)” value is given as 50%, the responding donors is 8 and the “response intensity ( %)” value was 2,06%.
The matching figures for “KLARLHYSGSINAWSTKEPF [P2068-2087, 20-mer FVIII peptide, C1 domain]”: 20, 50%, 8 and 2,29%.
As to “LGQFLLFCHISSHQHDGMEA [P322-341, 20-mer FVIII peptide, A1 domain]”, in test [1], the “nb positive T cell lines” value is 27, the “cumulative donor coverage (%)” value worked out at 81%, the “Donor coverage ( %)” value worked out at 62% and the responding donors worked out at 10. Also, the “response intensity ( %)” value in test [1] is 3,10%.
As for “LLTRYLRIHPQSWVHQIALR [P2320-2339, 20-mer FVIII peptide, C2 domain]”, in test [1], the “nb positive T cell lines” value is 10, the “Donor coverage ( %)” value came to 50%, the responding donors was determined as 8 and the “response intensity ( %)” value is listed as 1,15%. The “Ratio IC50 DRB1*0301” value at HLA-DRB1*0301 is reported as 114.
With “LSHVDLVKDLNSGLIGALLV [P178-197, 20-mer FVIII peptide, A1 domain]”, in test [1], the “nb positive T cell lines” value is on record as 19, the “cumulative donor coverage (%)” value is on record as 81%, the “Donor coverage ( %)” value is on record as 56% and the responding donors stood at 9. In addition, in test [1], the “response intensity ( %)” value is given as 2,18%. In addition, the “Ratio IC50 DRB1*0301” value on HLA-DRB1*0301 is reported as 0.05.
Take PPIIARYIRLHPTHYSIRST [P2161-2180]: in test [1], the “nb positive T cell lines” value stood at 21, the “Donor coverage ( %)” value was 56%, the responding donors turned out to be 9 and the “response intensity ( %)” value is 2,41%. At HLA-DRB1*0301, the “Ratio IC50 DRB1*0301” value is 21.
In the case of “RHYFIAAVERLWDYGMSSSP [P1715-1734, 20-mer FVIII peptide, A3 domain]”, in test [1], the “nb positive T cell lines” value is 16, the “Donor coverage ( %)” value was found to be 50%, the responding donors stood at 8 and the “response intensity ( %)” value is recorded as 1,83%.
As for “SLYISQFIIMYSLDGKKWQT [P2114-2133, 20-mer FVIII peptide, C1 domain]”, in test [1], the “nb positive T cell lines” value was 10, the “Donor coverage ( %)” value was determined as 50%, the responding donors was determined as 8 and the “response intensity ( %)” value is 1,15%. The “Ratio IC50 DRB1*0301” value at HLA-DRB1*0301 is 30.
Regarding “VHSIFLEGHTFLVRNHRQAS [P285-304, 20-mer FVIII peptide, A1 domain]”, in test [1], the “nb positive T cell lines” value worked out at 44, the “cumulative donor coverage (%)” value was determined as 75%, the “Donor coverage ( %)” value amounted to 75% and the responding donors was 12. Also, the “response intensity ( %)” value in test [1] is listed as 5,05%. Moreover, at HLA-DRB1*0301, the “Ratio IC50 DRB1*0301” value stood at 58.
As for “YDTVVITLKNMASHPVSLHA [P100-119, 20-mer FVIII peptide, A1 domain]”, in test [1], the “nb positive T cell lines” value is on record as 44, the “cumulative donor coverage (%)” value amounted to 81%, the “Donor coverage ( %)” value worked out at 69% and the responding donors stood at 11. The “response intensity ( %)” value in test [1] is listed as 5,05%. In addition, the “Ratio IC50 DRB1*0301” value on HLA-DRB1*0301 was found to be 30.
